# Assays:
# [1] = test system: HeLa cells; assay: Cellular localization of TyrRS; type: cell-based, human; conditions: HeLa cells, 1.1, 3.3, 10 or 30 μM, 8 h, immunoblot
# [2] = test system: HeLa cells; assay: Detection of DNA damage in cells; type: cell-based, human; conditions: pre-treated 24 h (0.37-30 μM), then 30 μM cisplatin 24 h, immunoblot
# [3] = target: T1, human TyrRS (Homo sapiens, UniProt P54577); assay: ATP–pyrophosphate exchange assay; type: biochemical; conditions: for remaining activity at 100 µM: read-out: Enzyme activity@100 μM (%); for inhibitory effect on human TyrRS (SAR statement in words): 100 μM screening data of Tables 1 and 2
# T1 sequence (P54577 1-341): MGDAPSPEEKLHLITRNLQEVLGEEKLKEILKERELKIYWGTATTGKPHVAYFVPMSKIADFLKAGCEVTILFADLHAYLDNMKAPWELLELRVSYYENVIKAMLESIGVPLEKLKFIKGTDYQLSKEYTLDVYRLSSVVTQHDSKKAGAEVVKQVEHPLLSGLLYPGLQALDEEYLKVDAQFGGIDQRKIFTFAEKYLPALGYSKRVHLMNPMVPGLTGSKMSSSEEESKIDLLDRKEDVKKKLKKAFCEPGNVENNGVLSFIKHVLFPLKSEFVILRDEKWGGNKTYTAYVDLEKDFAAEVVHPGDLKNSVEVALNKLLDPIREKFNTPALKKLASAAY
SMILES,TyrRS nuclear localization [1],level of γ-H2A.X (DNA damage) [2],remaining activity at 100 µM [3],inhibitory effect on human TyrRS (SAR statement in words) [3]
"O=c1cc(-c2ccccc2)oc2c(Sc3cccc(O)c3)c(O)c(Sc3cccc(O)c3)c(O)c12 [Compound 11, 5,7-dihydroxy-6,8-bis((3-hydroxyphenyl)thio)-2-phenyl-4H-chromen-4-one]",dramatically promoted the nuclear localization of TyrRS,dramatically decreased,,
COc1cc(O)c(Sc2ccccc2F)c2oc(-c3ccccc3)cc(=O)c12 [Compound 18],,,73.8%,
COc1ccccc1Sc1c(O)c(Sc2ccccc2OC)c2oc(-c3ccccc3)cc(=O)c2c1O [Compound 3],,,88.9%,substantially diminished activity
O=c1cc(-c2ccccc2)oc2c(Sc3cccc(O)c3)c(O)cc(O)c12 [Compound 26],,,93.2%,
COc1cc(O)c(Sc2cccc(F)c2)c2oc(-c3ccccc3)cc(=O)c12 [Compound 15],,,68.5%,
COc1cc(O)c(Sc2ccc(F)cc2)c2oc(-c3ccccc3)cc(=O)c12 [Compound 16],,,76.4%,
CC(C)(C)c1ccc(Sc2c(O)c(Sc3ccc(C(C)(C)C)cc3)c3oc(-c4ccccc4)cc(=O)c3c2O)cc1 [Compound 9],,,85.3%,substantially diminished activity
COc1ccc(Sc2c(O)cc(OC)c3c(=O)cc(-c4ccccc4)oc23)cc1 [Compound 21],,,73.9%,
O=c1cc(-c2ccccc2)oc2c(Sc3ccccc3O)c(O)cc(O)c12 [Compound 29],,,81.9%,
Cc1ccccc1Sc1c(O)c(Sc2ccccc2C)c2oc(-c3ccccc3)cc(=O)c2c1O [Compound 8],,,75.9%,substantially diminished activity
